# Source: patent US20250262331A1, “COMPOSITION AND METHODS FOR IMPROVING SIGNS AND SYMPTOMS OF OCULAR DISORDERS” (Azura Ophthalmics Ltd., priority 2022, published 2025)
# Test system: sebaceous cells
# Assay: Preclinical sebum production in sebaceous cells
# Assay type: cell-based
# Conditions: preclinical data; lower effect observed at higher concentrations
smiles,measurement,value
S=[Se]=S [selenium disulfide],effect on sebum production in sebaceous cells,non-linear dose response
